The text below walks through data of publication PMC7196836, “Molecular analysis of the ribosome recycling factor ABCE1 bound to the 30S post‐splitting complex” (The EMBO Journal, 2020).

The experiment concerns the target T1, ABCE1 (Saccharolobus solfataricus, UniProt Q980K5, L353Y).
T1 construct: gene SSO0287; recombinant in E. coli (pSA4 plasmid), C-terminal His6 tag; FeS cluster domain kept
In words: Malachite Green ATPase assay (phosphate release). It counts as biochemical. As to conditions: 2 mM ATP, 2.5 mM MgCl2, 150 mM NaCl, Hepes pH 7.5, 80 °C; no ribosomes.

Structures are written as SMILES.

With `Nc1ncnc2c1ncn2[C@@H]1O[C@H](COP(=O)(O)OP(=O)(O)OP(=O)(O)O)[C@@H](O)[C@H]1O` [ATP], the “ATP turnover per ABCE1” value was “ATPase activity of ABCE1^L353Y (Appendix Fig S3) were comparable to wild type”.
